# Experimental data from patent publication US12209086B2, “FGFR3 inhibitor compounds” (ELI LILLY AND COMPANY, priority 2021, dated 2025).
# Target: T1, FGFR3 protein (Homo sapiens, UniProt P22607)
# T1 construct: purchased Reaction Biology 1068
# Test: FGFR3 enzyme assay (KinEASE-TK HTRF kinase assay)
# Format: biochemical
# Conditions: 0.25 nM enzyme, ATP at Km, 15 min pre-incubation on ice, 30 min at 30° C.
# Experimental: FGFR3 and FGFR1 Enzyme Assay
# Enzyme activity was monitored using the KinEASE™-TK Assay Kit (Cisflio, Cat. No. 62TK0PEC) according to the manufacturer's instructions. All assays were performed at the respective KmATP for each kinase in KinEASE™ Kinase Buffer.
# Titration of compounds were performed in a half-log manner in 100% dimethyl sulfoxide (DMSO) starting at 1 uM. Prior to the initiation of the reaction by adenosine triphosphate (ATP), FGFR1 protein and compounds were pre-incubated for 15 minutes at room temperature, and FGFR3 protein and compounds were pre-incubated on ice for 15 minutes. Reactions proceeded for 30 min at 30° C. Plates were quenched by the addition of the Anti-TK cryptate antibody/Streptavidin-XL665 mixture.
# Ratios were converted to a percent of control (POC) using a ratiometric emission factor. One hundred POC was determined using no test compound, and 0 POC was determined in the presence of 1 uM of an appropriate control inhibitor.
# T1 sequence (P22607 23-806): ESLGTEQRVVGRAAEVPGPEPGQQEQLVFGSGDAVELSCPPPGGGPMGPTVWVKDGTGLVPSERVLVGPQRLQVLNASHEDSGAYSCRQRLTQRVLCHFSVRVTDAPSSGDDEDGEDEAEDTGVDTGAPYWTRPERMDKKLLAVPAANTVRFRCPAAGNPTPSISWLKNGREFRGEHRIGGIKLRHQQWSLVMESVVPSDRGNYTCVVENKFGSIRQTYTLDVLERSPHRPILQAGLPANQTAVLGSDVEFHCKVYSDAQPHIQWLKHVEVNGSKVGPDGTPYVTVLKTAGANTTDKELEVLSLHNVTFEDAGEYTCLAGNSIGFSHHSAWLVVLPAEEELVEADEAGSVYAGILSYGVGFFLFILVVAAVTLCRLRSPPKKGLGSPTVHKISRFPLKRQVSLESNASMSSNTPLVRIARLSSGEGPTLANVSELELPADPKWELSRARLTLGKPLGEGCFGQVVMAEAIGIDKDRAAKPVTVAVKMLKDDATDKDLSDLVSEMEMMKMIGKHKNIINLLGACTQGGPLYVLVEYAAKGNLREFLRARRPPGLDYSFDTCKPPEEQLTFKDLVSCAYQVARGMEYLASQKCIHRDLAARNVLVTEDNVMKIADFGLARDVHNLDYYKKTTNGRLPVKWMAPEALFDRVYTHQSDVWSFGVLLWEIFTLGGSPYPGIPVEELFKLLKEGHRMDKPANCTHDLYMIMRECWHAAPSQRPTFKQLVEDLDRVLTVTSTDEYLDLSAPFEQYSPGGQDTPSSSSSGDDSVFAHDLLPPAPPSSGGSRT
row,IC50 [nM],Compound
1,< 50,"Cc1c(-c2cc(OC(CO)c3ccc(F)cn3)n3c(C#N)cnc3c2)nnn1C1CCN(C#N)CC1 (single isomer, unassigned; isomer 1) [Example 63, 7-[1-(1-Cyano-4-piperidyl)-5-methyl-triazol-4-yl]-5-[1-(5-fluoro-2-pyridyl)-2-hydroxy-ethoxy]imidazo[1,2-a]pyridine-3-carbonitrile, Isomer 1]"
2,< 50,"Cc1c(-c2cc(OC(C)c3cc(Cl)cnn3)c3c(C#N)cnn3c2)nnn1C1CCN(C#N)CC1 (single isomer, unassigned; isomer 1) [Example 68, 4-[1-(5-Chloropyridazin-3-yl)ethoxy]-6-[1-(1-cyano-4-piperidyl)-5-methyl-triazol-4-yl]pyrazolo[1,5-a]pyridine-3-carbonitrile, Isomer 1]"
3,< 50,"Cc1c(-c2cc(OC(C)c3cccc4cnsc34)c3c(C#N)cnn3c2)nnn1C1CCN(C#N)CC1 (single isomer, unassigned; isomer 1) [Example 79, 4-[1-(1,2-benzothiazol-7-yl)ethoxy]-6-[1-(1-cyano-4-piperidyl)-5-methyl-triazol-4-yl]pyrazolo[1,5-a]pyridine-3-carbonitrile, Isomer 1]"
4,< 50,"Cc1c(-c2cc(OC(CO)c3ccc(F)cn3)n3c(Cl)cnc3c2)nnn1C1CCN(C#N)CC1 (single isomer, unassigned; isomer 2) [Example 47, 4-[4-[3-Chloro-5-[1-(5-fluoro-2-pyridyl)-2-hydroxy-ethoxy]imidazo[1,2-a]pyidine-7-yl]-5-methyl-triazol-1-yl]piperidine-1-carbonitrile, Isomer 2]"
5,< 100,"Cc1c(-c2cc(OC(C)c3ccccc3C(=O)N(C)C)c3c(C#N)cnn3c2)nnn1C1CCN(C#N)CC1 (single isomer, unassigned; isomer 2) [Example 75, 2-[1-[3-cyano-6-[1-(1-cyano-4-piperidyl)-5-methyl-triazol-4-yl]pyrazolo[1,5-a]pyridin-4-yl]oxyethyl]-N,N-dimethyl-benzamide, Isomer 2]"
6,< 100,"Cc1c(-c2cc(OC(C)c3ccccc3S(C)(=O)=O)c3c(C#N)cnn3c2)cnn1C1CCN(C#N)CC1 (single isomer, unassigned; isomer 2) [Example 77, 6-[1-(1-Cyano-4-piperidyl)-5-methyl-pyrazol-4-yl]-4-[1-(2-methylsulfonylphenyl)ethoxy]pyrazolo[1,5-a]pyridine-3-carbonitrile, Isomer 2]"
7,< 100,"Cc1c(-c2cc(OC(C)c3cc(C(F)(F)F)cnc3N3CCOCC3)c3c(C#N)cnn3c2)nnn1C1CCN(C#N)CC1 (stereo not shown) [Example 13, 6-[1-(1-Cyano-4-piperidyl)-5-methyl-triazol-4-yl]-4-[1-[2-morpholino-5-(trifluoromethyl)-3-pyridyl]ethoxy]pyrazolo [1,5-a]pyridine-3-carbonitrile]"
8,< 50,"Cc1c(-c2cc(OC(C)c3cncc4cc(F)ccc34)c3c(C#N)cnn3c2)nnn1C1CCN(C#N)CC1 (stereo not shown) [Example 21, 6-[1-(1-Cyano-4-piperidyl)-5-methyl-triazol-4-yl]-4-[1-(7-fluoro-4-isoquinolyl)ethoxy] pyrazolo[1,5-a] pyridine-3-carbonitrile]"
9,< 50,"Cc1c(-c2cc(OC(CF)c3ccc(F)cn3)c3c(C#N)cnn3c2)nnn1C1CCN(C#N)CC1 (stereo not shown) [Example 22, 6-[1-(1-Cyano-4-piperidyl)-5-methyl-triazol-4-yl]-4-[2-fluoro-1-(5-fluoro-2-pyridyl)ethoxy]pyrazolo [1,5-a]pyridine-3-carbonitrile]"
10,< 50,"Cc1c(-c2cc(OC(C)c3cncc4ccccc34)c3c(C#N)cnn3c2)nnn1C1CCN(C#N)CC1 (stereo not shown) [Example 24, 6-[1-(1-Cyano-4-piperidyl)-5-methyl-triazol-4-yl]-4-[1-(4-isoquinolyl)ethoxy] pyrazolo[1,5-a] pyridine-3-carbonitrile]"
11,< 50,"Cc1c(-c2cc(OC(c3ccc(F)cn3)C3(F)CC3)c3c(C#N)cnn3c2)nnn1C1CCN(C#N)CC1 (stereo not shown) [Example 26, 6-[1-(1-Cyano-4-piperidyl)-5-methyl-triazol-4-yl]-4-[(1-fluorocyclopropyl)-(5-fluoro-2-pyridyl)methoxy]pyrazolo [1,5-a]pyridine-3-carbonitrile]"
12,< 50,"Cc1c(-c2cc(O[C@H](C)c3ccccn3)c3c(C#N)cnn3c2)nnn1C1CCN(C#N)CC1 [Example 169, 4-(4-[3-Cyano-4-[(1R)-1-(pyridin-2-yl)ethoxy]pyrazolo[1,5-a]pyridin-6-yl]-5-methyl-1,2,3-triazol-1-yl)piperidine-1-carbonitrile]"
13,< 50,"Cc1c(-c2cc(O[C@H](C)c3ccc(F)cn3)n3c(C#N)cnc3c2)nnn1C1CCN(C#N)CC1 [Example 170, 4-(4-[3-Cyano-5-[(1R)-1-(5-fluoropyridin-2-yl)ethoxy]imidazo[1,2-a]pyridin-7-yl]-5-methyl-1,2,3-triazol-1-yl)piperidine-1-carbonitrile]"
14,< 50,"COc1cc(-c2cnn(C3CC4(CCN(C#N)CC4)C3)c2C)cn2ncc(C#N)c12 [Example 171, 2-(4-[3-Cyano-4-methoxypyrazolo[1,5-a]pyridin-6-yl]-5-methylpyrazol-1-yl)-7-azaspiro[3.5]nonane-7-carbonitrile]"
15,< 50,"COc1cc(-c2cnn([C@H]3C[C@H]4CC[C@@H](C3)N4C#N)c2C)cn2ncc(C#N)c12 [Example 183, 6-(1-((1R,3r,5S)-8-Cyano-8-azabicyclo[3.2.1]octan-3-yl)-5-methyl-1H-pyrazol-4-yl)-4-methoxypyrazolo[1,5-a]pyridine-3-carbonitrile]"
16,< 50,"Cc1c(-c2cc(O[C@H](C)c3ccnn3C)c3c(C#N)cnn3c2)cnn1C1CCN(C#N)CC1 [Example 189, 4-(4-[3-Cyano-4-[(1R)-1-(2-methylpyrazol-3-yl)ethoxy]pyrazolo [1,5-a]pyridin-6-yl]-5-methylpyrazol-1-yl)piperidine-1-carbonitrile]"
17,< 50,"Cc1c(-c2cc(O[C@H](C)C3CCC3)c3c(C#N)cnn3c2)cnn1C1CCN(C#N)CC1 [Example 195, 4-(4-[3-cyano-4-[(1R)-1-cyclobutylethoxy]pyrazolo[1,5-a]pyridin-6-yl]-5-methylpyrazol-1-yl)piperidine-1-carbonitrile]"
18,< 50,"Cc1c(-c2cc(O[C@H](C)c3ccccn3)n3c(C#N)cnc3c2)nnn1C1CCN(C#N)CC1 [Example 201, 4-(4-[3-Cyano-5-[(1R)-1-(pyridin-2-yl)ethoxy]imidazo [1,2-a]pyridin-7-yl]-5-methyl-1,2,3-triazol-1-yl)piperidine-1-carbonitrile]"
19,< 50,Cc1c(-c2cc(O[C@H](C)c3ccc(F)cn3)n3c(C#N)cnc3c2)cnn1C1CCN(C#N)CC1 [Example 209]
20,< 50,"Cc1c(-c2cc(O[C@H](C)c3ccccn3)n3c(C#N)cnc3c2)nnn1C1CC2(CCN(C#N)CC2)C1 [Example 212, 7-[1-(7-Cyano-7-azaspiro[3.5]nonan-2-yl)-5-methyl-triazol-4-yl]-5-[(1R)-1-(2-pyridyl)ethoxy]imidazo [1,2-a]pyridine-3-carbonitrile]"
21,< 50,"COc1cc(-c2cnn(C3CN([C@H]4CCCN(C#N)C4)C3)c2C)cn2ncc(C#N)c12 [Example 215, (3S)-3-[3-(4-[3-Cyano-4-methoxypyrazolo[1,5-a]pyridin-6-yl]-5-methylpyrazol-1-yl)azetidin-1-yl]piperidine-1-carbonitrile]"
22,< 50,"COc1cc(-c2cnn(C3CN([C@@H]4CCN(C#N)C4)C3)c2C)cn2ncc(C#N)c12 [Example 222, (3R)-3-[3-(4-[3-Cyano-4-methoxypyrazolo[1,5-a]pyridin-6-yl]-5-methylpyrazol-1-yl)azetidin-1-yl]pyrrolidine-1-carbonitrile]"
23,< 100,"COc1cc(-c2cnn(C3CN(C4CC5CC(C4)N(C#N)C5)C3)c2C)cn2ncc(C#N)c12 (stereo not shown) [Example 225, 6-(1-(1-(6-cyano-6-azabicyclo[3.2.1]octan-3-yl)azetidin-3-yl)-5-methyl-1H-pyrazol-4-yl)-4-methoxypyrazolo[1,5-a]pyridine-3-carbonitrile]"
24,< 50,"Cc1c(-c2cc(O[C@H](C)c3ccccn3)n3c(C#N)cnc3c2)cnn1C1CN(C2CC3CCC2N3C#N)C1 (stereo partly drawn) [Example 226, 7-[1-[1-(7-Cyano-7-azabicyclo[2.2.1]heptan-2-yl)azetidin-3-yl]-5-methyl-pyrazol-4-yl]-5-[(1R)-1-(2-pyridyl)ethoxy]imidazo [1,2-a]pyridine-3-carbonitrile]"
25,< 50,"COc1cc(-c2cnn(C3CCN(C4CN(C#N)C4)CC3)c2C)cn2ncc(C#N)c12 [Example 228, 3-[4-(4-[3-Cyano-4-methoxypyrazolo[1,5-a]pyridin-6-yl]-5-methylpyrazol-1-yl)piperidin-1-yl]azetidine-1-carbonitrile]"
26,< 100,"Cc1c(-c2cc(O[C@H](C)c3ccccn3)n3c(Cl)cnc3c2)nnn1C1CN(C2CCN(C#N)CC2)C1 [Example 233, 4-[3-[4-[3-Chloro-5-[(1R)-1-(2-pyridyl)ethoxy]imidazo[1,2-a]pyridin-7-yl]-5-methyl-triazol-1-yl]azetidin-1-yl]piperidine-1-carbonitrile]"
27,< 50,"Cc1c(-c2cc(O[C@H](C)C3CCOCC3)c3c(C#N)cnn3c2)cnn1C1CCN(C#N)CC1 [Example 245, 4-(4-[3-Cyano-4-[(1R)-1-(oxan-4-yl)ethoxy]pyrazolo [1,5-a]pyridin-6-yl]-5-methylpyrazol-1-yl)piperidine-1-carbonitrile]"
28,< 50,"Cc1c(-c2cc(O[C@H](C)c3ccccn3)n3c(C#N)cnc3c2)nnn1C1CCCN(C#N)CC1 (stereo partly drawn) [Example 257, 7-[1-(1-Cyanoazepan-4-yl)-5-methyl-triazol-4-yl]-5-[(1R)-1-(2-pyridyl)ethoxy] imidazo[1,2-a]pyridine-3-carbonitrile]"
